Data from US20200188361A1, “USE OF MITOCHONDRIAL ACTIVITY INHIBITORS FOR THE TREATMENT OF POOR PROGNOSIS ACUTE MYELOID LEUKEMIA” (UNIVERSITE DE MONTREAL, priority 2016, published 2020).

Tests used:
[1] = system: OCI-AML5 cells; details: FIG. 5G, 6-day culture
Method: FIGS. 5A-5J show the results on experiments assessing the mode of action of Mubritinib for mediating tumor cell death. FIG. 5A: OCI-AML3 leukemic cells were either pre-incubated for 4 hours with 6 mM N-acetyl-cysteine (NAC), a reactive oxygen species (ROS) scavenger, or with vehicle (water) before being treated with 100 nM Mubritinib for 24 h or vehicle (DMSO). […] FIGS. 5C and 5D show the levels of reduced and oxidized levels of glutathione, respectively, in OCI-AML3 treated or not with Mubritinib, as detected by liquid chromatography-mass spectrometry (LC/MS). […] FIG. 5G is a graph depicting dose-response curves upon Mubritinib treatment (6-day culture assay in 384-well plates) of OCI-AML3 and OCI-AML5 cell lines. […]
Patient cells were seeded in 384-well plates at a density of 5,000 cells in 50 μL per well. […] Viable cell counts per well were evaluated after 6 days of culture using the CellTiterGlo® assay (Promega®) according to the manufacturer's instruction. The percent of inhibition was calculated as follows: 100−(100×(mean luminescence(compound)/mean luminescence(DMSO)); where mean-luminescence(compound) corresponds to the average of luminescent signals obtained for the compound-treated cells, and mean-luminescence(DMSO) corresponds to the average of luminescent signals obtained for the control DMSO-treated cells.

[2] = system: OCI-AML3 leukemic cells; details: acute injection, 1 μM (FIG. 5E)
Method: Oxygen consumption rates and extracellular acidification rates were measured using a 96-well Seahorse Bioanalyzer XFe96® or XFe24® according to the manufacturer's instructions (Agilent Technologies). Seahorse XF Base medium was supplemented with 1 mM pyruvate, 2 mM glutamine and 10 mM glucose in the case of Mitochondrial Stress Test and with 1 mM pyruvate, 2 mM glutamine and no glucose in the case of Glycolytic Stress Test. The pH of the Seahorse media was then adjusted at 7.4 prior to assay. In brief, leukemic cells were seeded into Seahorse 96-well (or 24-well) plates pre-coated for 3 h with poly-lysine (Sigma-Aldrich, P4707) at a density of 75,000 cells/well in 100 μL (or 150,000 cells/well, in 150 μL) of temperature/CO2 pre-adjusted Seahorse media per well. The Seahorse plates were then centrifuged at 1400 rpm for 5 min. An additional 75 μL (or 375 μL) of Seahorse media was then added and cells were eventually analyzed following the manufacturer's instructions by adding compounds in a constant volume of 25 μL (or 75 μL). Compounds were acutely injected in cells at a final concentration of 1 μM for Mubritinib, 1 μM for Oligomycin, 0.5 μM for FCCP, 0.5 μM for Rotenone/Antimycin A, Glucose 10 mM and 2-Deoxy-Glucose 50 mM.

[3] = biological target: human epidermal growth factor receptor 2 (ERBB2/HER2) (Homo sapiens, UniProt P04626); details: described in Nagasawa et al.; cited from earlier work
Sequence of human epidermal growth factor receptor 2 (ERBB2/HER2) (P04626 23-1255): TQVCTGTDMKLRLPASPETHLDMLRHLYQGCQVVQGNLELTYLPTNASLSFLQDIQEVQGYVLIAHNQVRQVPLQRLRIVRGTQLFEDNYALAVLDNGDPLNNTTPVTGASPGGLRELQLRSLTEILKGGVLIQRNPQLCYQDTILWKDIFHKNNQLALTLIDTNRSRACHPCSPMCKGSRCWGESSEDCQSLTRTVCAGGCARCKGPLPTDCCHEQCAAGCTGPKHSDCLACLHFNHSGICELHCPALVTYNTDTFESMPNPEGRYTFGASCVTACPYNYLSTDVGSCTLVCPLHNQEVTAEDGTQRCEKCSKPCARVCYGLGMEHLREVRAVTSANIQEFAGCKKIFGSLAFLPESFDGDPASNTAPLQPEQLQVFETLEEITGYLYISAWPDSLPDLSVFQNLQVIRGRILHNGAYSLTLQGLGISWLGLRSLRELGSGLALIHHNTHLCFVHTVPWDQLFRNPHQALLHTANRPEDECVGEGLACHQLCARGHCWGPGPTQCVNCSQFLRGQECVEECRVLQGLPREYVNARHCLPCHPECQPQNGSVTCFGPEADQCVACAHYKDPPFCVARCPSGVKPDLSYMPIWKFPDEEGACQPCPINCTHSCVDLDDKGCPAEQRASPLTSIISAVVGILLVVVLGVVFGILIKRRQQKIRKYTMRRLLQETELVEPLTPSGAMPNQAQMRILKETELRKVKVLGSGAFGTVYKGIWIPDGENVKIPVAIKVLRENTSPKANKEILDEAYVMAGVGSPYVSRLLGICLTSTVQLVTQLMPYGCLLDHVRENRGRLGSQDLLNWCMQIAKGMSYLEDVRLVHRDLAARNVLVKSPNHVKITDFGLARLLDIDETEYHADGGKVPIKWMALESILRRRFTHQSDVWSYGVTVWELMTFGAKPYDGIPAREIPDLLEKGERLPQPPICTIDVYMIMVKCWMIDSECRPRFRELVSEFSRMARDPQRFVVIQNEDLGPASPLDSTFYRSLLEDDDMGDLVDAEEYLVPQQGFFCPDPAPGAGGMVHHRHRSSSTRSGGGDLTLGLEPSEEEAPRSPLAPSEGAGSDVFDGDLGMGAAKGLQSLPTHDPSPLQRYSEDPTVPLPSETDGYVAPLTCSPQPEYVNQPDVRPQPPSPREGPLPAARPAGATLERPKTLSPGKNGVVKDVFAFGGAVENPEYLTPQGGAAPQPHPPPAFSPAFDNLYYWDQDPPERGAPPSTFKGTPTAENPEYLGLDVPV

FC(F)(F)c1ccc(/C=C/c2nc(COc3ccc(CCCCn4ccnn4)cc3)co2)cc1 [Mubritinib, 1-(4-{4-[(2-{(E)-2-[4-(trifluoromethyl)phenyl]ethenyl}-1,3-oxazol-4-yl)methoxy]phenyl}butyl)-1H-1,2,3-triazole]
sensitivity of OCI-AML5 cells to compound-induced cell death [1]: resistant
oxygen consumption rate [2]: impaired oxygen consumption rate
inhibition of ERBB2/HER2 [3]: potent inhibitor
